From patent publication US20220387276A1, “Composition Comprising Oils, Free Fatty Acids And Squalene” (Clariant International Ltd., priority 2021, published 2022)

Format: physicochemical
Description: The oxidative stability at 90° C. was determined according to DIN EN ISO 6886 for the blend of Example 1 and compared with the oxidative stability of squalene.

SMILES: CC(C)=CCC/C(C)=C/CC/C(C)=C/CC/C=C(\C)CC/C=C(\C)CCC=C(C)C [squalene]
- Induction time (oxidative stability): 4.84 h
